Assay results published in PMC11212140, “Molecular Bidents with Two Electrophilic Warheads as a New Pharmacological Modality” (ACS Central Science, 2024).

What was measured:
Test in all cases: KiNativ profiling in H3255 cells
Format in all cases: cell-based, human
Erk1 = system: T1, Erk1; details: 2.5 µM; Lys2; DLKPSNLLINTTCDLK
T1 construct: purchased ActivX Biosciences (KiNativ)
Description: (§1) H3255 cells were plated with 6.5x10^6 per condition in fresh media in 15 cm plates and treated the 80% confluency for 2 hours with DMSO or 2.5 μM of ZNL-0056. To harvest cells, plates were washed 3 times with cold PBS, then collected by scraping into 4 mL of cold PBS containing protease and phosphatase inhibitors. Cells were pelleted by centrifugation at 1350 g at 4 ℃ for 5 minutes and immediately frozen in liquid nitrogen. The frozen samples were sent to ActivX Biosciences (La Jolla, CA) for the remainder of the KiNativ profiling experiment4. […]

p70S6Kb = system: T2, p70S6Kb; details: 2.5 µM; Lys2; DLKPENIMLSSQGHIK
T2 construct: purchased ActivX Biosciences (KiNativ)
Description: as §1

PIK3C2B = system: T3, PIK3C2B; details: 2.5 µM; ATP; VIFKCGDDLRQDMLTLQMIR
T3 construct: purchased ActivX Biosciences (KiNativ)
Description: as §1

CHK1 = system: T4, CHK1; details: 2.5 µM; Lys2; DIKPENLLLDER
T4 construct: purchased ActivX Biosciences (KiNativ)
Description: as §1

BRAF, RAF1 = details: 2.5 µM; Activation Loop; IGDFGLATVKSR
Description: as §1

ARAF = system: T5, ARAF; details: 2.5 µM; Lys2; DLKSNNIFLHEGLTVK
T5 construct: purchased ActivX Biosciences (KiNativ)
Description: as §1

IRAK1 = system: T6, IRAK1; details: 2.5 µM; Lys2; AIQFLHQDSPSLIHGDIKSSNVLLDER
T6 construct: purchased ActivX Biosciences (KiNativ)
Description: as §1

MAP2K3 = system: T7, MAP2K3; details: 2.5 µM
T7 construct: purchased ActivX Biosciences (KiNativ)
Description: as §1

MAP2K6 = system: T8, MAP2K6; details: 2.5 µM
T8 construct: purchased ActivX Biosciences (KiNativ)
Description: as §1

Wnk1, Wnk2, Wnk3 = details: 2.5 µM; Lys2; DLKCDNIFITGPTGSVK
Description: as §1

CK1g1 = system: T9, CK1g1; details: 2.5 µM; Lys2; DVKPENFLIGR
T9 construct: purchased ActivX Biosciences (KiNativ)
Description: as §1

FAM20B = system: T10, FAM20B; details: 2.5 µM; ATP; ETEPACADGDIMEGSVTLWLPDVWPLQKHR
T10 construct: purchased ActivX Biosciences (KiNativ)
Description: as §1

MARK2, MARK3 = details: 2.5 µM; Lys2; DLKAENLLLDADMNIK
Description: as §1

MLK3 = system: T11, MLK3; details: 2.5 µM; Lys2; DLKSNNILLLQPIESDDMEHK
T11 construct: purchased ActivX Biosciences (KiNativ)
Description: as §1

RSK2 domain1 = system: T12, RSK2 domain1; details: 2.5 µM
T12 construct: RSK2 domain1; purchased ActivX Biosciences (KiNativ)
Description: as §1

CK1d, CK1e = details: 2.5 µM; Lys2; DVKPDNFLMGLGKK
Description: as §1

FAK = system: T13, FAK; details: 2.5 µM
T13 construct: purchased ActivX Biosciences (KiNativ)
Description: as §1

p38b = system: T14, p38b; details: 2.5 µM; Other; QELNKTVWEVPQR
T14 construct: purchased ActivX Biosciences (KiNativ)
Description: as §1

GSK3B = system: T15, GSK3B; details: 2.5 µM; Lys2; DIKPQNLLLDPDTAVLK
T15 construct: purchased ActivX Biosciences (KiNativ)
Description: as §1

GCN2 domain2 = system: T16, GCN2 domain2; details: 2.5 µM
T16 construct: GCN2 domain2; purchased ActivX Biosciences (KiNativ)
Description: as §1

MSK2 domain1 = system: T17, MSK2 domain1; details: 2.5 µM
T17 construct: MSK2 domain1; purchased ActivX Biosciences (KiNativ)
Description: as §1

MAP2K4 = system: T18, MAP2K4; details: 2.5 µM
T18 construct: purchased ActivX Biosciences (KiNativ)
Description: as §1

CDK6 = system: T19, CDK6; details: 2.5 µM; Lys2; DLKPQNILVTSSGQIK
T19 construct: purchased ActivX Biosciences (KiNativ)
Description: as §1

HRI = system: T20, HRI; details: 2.5 µM; Activation Loop; IGDFGLACTDILQKNTDWTNR
T20 construct: purchased ActivX Biosciences (KiNativ)
Description: as §1

ULK1 = system: T21, ULK1; details: 2.5 µM; Lys2; DLKPQNILLSNPAGR
T21 construct: purchased ActivX Biosciences (KiNativ)
Description: as §1

SMG1 = system: T22, SMG1; details: 2.5 µM, ATP
T22 construct: purchased ActivX Biosciences (KiNativ)
Description: as §1

CDK9 = system: T23, CDK9; details: 2.5 µM
T23 construct: purchased ActivX Biosciences (KiNativ)
Description: as §1

ACK = system: T24, ACK; details: 2.5 µM
T24 construct: purchased ActivX Biosciences (KiNativ)
Description: as §1

PIP4K2A = system: T25, PIP4K2A; details: 2.5 µM, ATP
T25 construct: purchased ActivX Biosciences (KiNativ)
Description: as §1

NDR1, NDR2 = details: 2.5 µM; Activation Loop; LSDFGLCTGLKK
Description: as §1

PFTAIRE1 = system: T26, PFTAIRE1; details: 2.5 µM; Lys1; LVALKVIR
T26 construct: purchased ActivX Biosciences (KiNativ)
Description: as §1

[1] = Activation Loop, MCDFGISGYLVDSVAKTMDAGCKPYMAPER
[2] = Activation Loop, LTDFGLSKESIDHEKK
[3] = Lys1, CIGEGQFGDVHQGIYMSPENPALAVAIKTCK
[4] = Lys1, TVSVAVKCLKPDVLSQPEAMDDFIR

C=CC(=O)Nc1cc(Nc2nccc(-c3cn(C)c4ccccc34)n2)c(OC)cc1N(C)CCN(C)C [Osimertinib, osimertinib, reference compound]
Inhibition (Erk1): -0.641%
Inhibition (p70S6Kb): -28.8%
Inhibition (PIK3C2B): 1.3%
Inhibition (CHK1): 15.0%
Inhibition (BRAF, RAF1): -21.1%
Inhibition (ARAF): -20.1%
Inhibition (IRAK1): -50.3%
Inhibition (MAP2K3; [1]): -14.4%
Inhibition (MAP2K3; Lys2, DVKPSNVLINK): -14.5%
Inhibition (MAP2K6; Lys1, HVPSGQIMAVKR): 6.1%
Inhibition (MAP2K6; Lys2, DVKPSNVLINALGQVK): -10.0%
Inhibition (Wnk1, Wnk2, Wnk3): 11.9%
Inhibition (CK1g1): 7.6%
Inhibition (FAM20B): 20.1%
Inhibition (MARK2, MARK3): -12.0%
Inhibition (MLK3): -1.5%
Inhibition (RSK2 domain1; [2]): -31.9%
Inhibition (RSK2 domain1; Lys1, QLYAMKVLK): 3.3%
Inhibition (CK1d, CK1e): 6.2%
Inhibition (FAK; Activation Loop, YMEDSTYYKASK): -25.6%
Inhibition (FAK; [3]): 16.5%
Inhibition (p38b): 7.2%
Inhibition (GSK3B): -0.3%
Inhibition (GCN2 domain2; Lys1, LDGCCYAVKR): 3.6%
Inhibition (GCN2 domain2; Lys2, DLKPVNIFLDSDDHVK): -25.4%
Inhibition (MSK2 domain1; Lys1, LYAMKVLR): -36.1%
Inhibition (MSK2 domain1; Lys2, DLKLENVLLDSEGHIVLTDFGLSK): 5.0%
Inhibition (MAP2K4; Lys1, MVHKPSGQIMAVKR): 12.0%
Inhibition (MAP2K4; Lys2, DIKPSNILLDR): 30.7%
Inhibition (CDK6): -8.5%
Inhibition (HRI): -4.0%
Inhibition (ULK1): -9.0%
Inhibition (SMG1; DTVTIHSVGGTITILPTKTKPK): -6.7%
Inhibition (SMG1; SYPYLFKGLEDLHLDER): -44.3%
Inhibition (CDK9; ATP Loop, IGQGTFGEVFKAR): 12.0%
Inhibition (CDK9; Lys2, DMKAANVLITR): 22.6%
Inhibition (ACK; Activation Loop, KVPFAWCAPESLK): 27.2%
Inhibition (ACK; [4]): 25.7%
Inhibition (PIP4K2A; AKELPTLKDNDFINEGQK): -3.2%
Inhibition (PIP4K2A; YIIKTITSEDVAEMHNILK): -14.3%
Inhibition (NDR1, NDR2): -22.1%
Inhibition (PFTAIRE1): 2.2%

C=CC(=O)Nc1cc(C(=O)Nc2nc3cccc(C)c3n2[C@@H]2CCCCN(C(=O)C=C)C2)cs1 [ZNL-0056]
Inhibition (Erk1): -17.6%
Inhibition (p70S6Kb): -8.5%
Inhibition (PIK3C2B): -9.6%
Inhibition (CHK1): -8.1%
Inhibition (BRAF, RAF1): -19.4%
Inhibition (ARAF): 11.3%
Inhibition (IRAK1): 21.6%
Inhibition (MAP2K3; [1]): 11.1%
Inhibition (MAP2K3; Lys2, DVKPSNVLINK): -14.4%
Inhibition (MAP2K6; Lys1, HVPSGQIMAVKR): -13.1%
Inhibition (MAP2K6; Lys2, DVKPSNVLINALGQVK): -0.186%
Inhibition (Wnk1, Wnk2, Wnk3): -34.6%
Inhibition (CK1g1): 16.6%
Inhibition (FAM20B): -17.9%
Inhibition (MARK2, MARK3): 9.0%
Inhibition (MLK3): 26.8%
Inhibition (RSK2 domain1; [2]): -17.5%
Inhibition (RSK2 domain1; Lys1, QLYAMKVLK): 0.2%
Inhibition (CK1d, CK1e): 10.8%
Inhibition (FAK; Activation Loop, YMEDSTYYKASK): -16.1%
Inhibition (FAK; [3]): -40.2%
Inhibition (p38b): -8.8%
Inhibition (GSK3B): -4.3%
Inhibition (GCN2 domain2; Lys1, LDGCCYAVKR): 0.0617%
Inhibition (GCN2 domain2; Lys2, DLKPVNIFLDSDDHVK): 5.5%
Inhibition (MSK2 domain1; Lys1, LYAMKVLR): -2.6%
Inhibition (MSK2 domain1; Lys2, DLKLENVLLDSEGHIVLTDFGLSK): 18.7%
Inhibition (MAP2K4; Lys1, MVHKPSGQIMAVKR): 5.7%
Inhibition (MAP2K4; Lys2, DIKPSNILLDR): 2.6%
Inhibition (CDK6): -27.5%
Inhibition (HRI): 6.7%
Inhibition (ULK1): 3.5%
Inhibition (SMG1; DTVTIHSVGGTITILPTKTKPK): -33.9%
Inhibition (SMG1; SYPYLFKGLEDLHLDER): -11.5%
Inhibition (CDK9; ATP Loop, IGQGTFGEVFKAR): -9.9%
Inhibition (CDK9; Lys2, DMKAANVLITR): 16.6%
Inhibition (ACK; Activation Loop, KVPFAWCAPESLK): -21.4%
Inhibition (ACK; [4]): -6.2%
Inhibition (PIP4K2A; AKELPTLKDNDFINEGQK): -0.9%
Inhibition (PIP4K2A; YIIKTITSEDVAEMHNILK): -4.5%
Inhibition (NDR1, NDR2): -7.6%
Inhibition (PFTAIRE1): 20.8%
